A word on the IC50: it is the concentration needed to halve the response being measured.

Test [1] addresses human constitutive proteasome (Beta5) (Homo sapiens (Human), UniProt P28074). The test is described as follows: Determination of Beta5 activity (fluorescence intensity assay, Suc-LLVY-AMC). The class given is biochemical. Particulars: purified human constitutive proteasome 1.25 nM, Suc-LLVY-AMC 40 μM. The method, boiled down: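 Purified constitutive proteasome (1.25 nM) was preincubated with compounds 20 min at 25 °C in 50 mM Tris pH 7.4, 0.03% SDS, 1 mM EDTA, 1% DMSO. Suc-LLVY-AMC (40 μM) was then added for 60 min at 37 °C. AMC fluorescence was read at ex 350/em 450 nm.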

Test [2] has as its target human immunoproteasome (LMP7) (Homo sapiens (Human), UniProt P28062). Kind of test: Determination of LMP7 activity (fluorescence intensity assay, Suc-LLVY-AMC). Conditions: for Selectivity LMP7 vs Beta5: LMP7 versus Beta5; for IC50: purified human immunoproteasome 0.25 nM, Suc-LLVY-AMC 40 μM. The class given is biochemical. The method, boiled down: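 0.25 nM purified human immunoproteasome preincubated 20 min at 25 °C with serially diluted compounds in 50 mM Tris pH 7.4, 0.03% SDS, 1 mM EDTA, 1% DMSO. Reaction started with 40 μM Suc-LLVY-AMC, run 60 min at 37 °C. Fluorescence read at ex 350/em 450 nm.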

The structures appear in SMILES notation. Bounds are passed on as bounds.

For `Cc1ccc(C[C@H](NC(=O)CCOc2ccccc2)B(O)O)cc1` [Compound No. 4, [(1R)-1-(3-phenoxypropanoylamino)-2-(p-tolyl)ethyl]boronic acid], the IC50 is 50 to 500 nM in test [1] and below 50 nM in test [2]. In test [2], the “Selectivity LMP7 vs Beta5” value is given as “++ (10 ≤ Selectivity < 50)”.

As for `O=C(Cc1ccccc1)N[C@@H](Cc1c(Cl)oc2ccccc12)B(O)O` [Compound No. 73, [(1R)-2-(2-chlorobenzofuran-3-yl)-1-[(2-phenylacetyl)amino]ethyl]-boronic acid], the values for the IC50 in test [1] and in test [2] were above 5000 nM and 50 to 500 nM, respectively. The “Selectivity LMP7 vs Beta5” value in test [2] was “+++ (50 ≤ Selectivity < 70)”.

Molecule `COCc1ccc(CC(=O)N[C@@H](Cc2coc3ccccc23)B(O)O)cc1` [Compound No. 30, [(1R)-2-(benzofuran-3-yl)-1-[[2-[4-(methoxymethyl)phenyl]acetyl]-amino]ethyl]boronic acid] displayed an IC50 in test [1] of 50 to 500 nM. In test [2], the “Selectivity LMP7 vs Beta5” value is on record as “++++ (70 ≤ Selectivity < 100)” and the IC50 was below 50 nM.

The molecule `O=C(Cc1ccc(N2CCCC2=O)cc1)N[C@@H](Cc1coc2ccccc12)B(O)O` [Compound No. 64, [(1R)-2-(benzofuran-3-yl)-1-[[2-[4-(2-oxopyrrolidin-1-yl)phenyl]acetyl]-amino]ethyl]boronic acid] returned an IC50 in test [1] of 50 to 500 nM. Besides, in test [2], the “Selectivity LMP7 vs Beta5” value is given as “+++ (50 ≤ Selectivity < 70)” and the IC50 is below 50 nM.

Consider `Cc1cccc2c(C[C@H](NC(=O)Cc3ccccc3C#N)B(O)O)coc12` [Compound No. 104, [(1R)-1-[[2-(2-cyanophenyl)acetyl]amino]-2-(7-methylbenzofuran-3-yl)ethyl]boronic acid], for which the IC50 in test [1] was 500 to 5000 nM. In test [2], the “Selectivity LMP7 vs Beta5” value is listed as “+++++ (Selectivity ≥ 100)” and the IC50 was below 50 nM.

Turning to `COCc1cccc(CC(=O)N[C@@H](Cc2coc3ccccc23)B(O)O)c1` [Compound No. 49, [(1R)-2-(benzofuran-3-yl)-1-[[2-[3-(methoxymethyl)phenyl]acetyl]-amino]ethyl]boronic acid], the IC50 in test [1] is 50 to 500 nM. In test [2], the “Selectivity LMP7 vs Beta5” value is given as “+++++ (Selectivity ≥ 100)” and the IC50 was below 50 nM.

In test [1], `Cc1cccc2c1OC[C@H]2C[C@H](NC(=O)Cc1ccccc1)B(O)O` [Compound No. 124, [(1R)-2-[(3S)-7-methyl-2,3-dihydrobenzofuran-3-yl]-1-[(2-phenylacetyl)amino]ethyl]boronic acid] had an IC50 above 5000 nM. Also, in test [2], the “Selectivity LMP7 vs Beta5” value is listed as “+++++ (Selectivity ≥ 100)” and the IC50 is below 50 nM.

In turn, `N#Cc1ccccc1CC(=O)N[C@@H](Cc1coc2c(Cl)cccc12)B(O)O` [Compound No. 116, [(1R)-2-(7-chlorobenzofuran-3-yl)-1-[[2-(2-cyanophenyl)acetyl]amino]-ethyl]boronic acid] had an IC50 in test [1] of 500 to 5000 nM. Further, in test [2], the “Selectivity LMP7 vs Beta5” value was “+++++ (Selectivity ≥ 100)” and the IC50 was below 50 nM.

Consider `CC(=O)Nc1ccc(CC(=O)N[C@@H](Cc2ccc(C)cc2)B(O)O)cc1` [Compound No. 21, [(1R)-1-[[2-(4-acetamidophenyl)acetyl]amino]-2-(p-tolyl)ethyl]boronic acid], for which the results for the IC50 in test [1] and in test [2] were above 5000 nM and below 50 nM, respectively. Also, the “Selectivity LMP7 vs Beta5” value in test [2] is listed as “++ (10 ≤ Selectivity < 50)”.

As to `COc1ccc(CC(=O)N[C@@H](Cc2cc3ccccc3o2)B(O)O)cc1` [Compound No. 108, [(1R)-2-(benzofuran-2-yl)-1-[[2-(4-methoxyphenyl)acetyl]-amino]ethyl]boronic acid], the IC50 in test [1] lay in the range of 500 to 5000 nM. In addition, in test [2], the “Selectivity LMP7 vs Beta5” value is on record as “+++++ (Selectivity ≥ 100)” and the IC50 was below 50 nM.

For `Cc1ccc2c(c1C)OCC2C[C@H](NC(=O)Cc1ccccc1)B(O)O` (stereo partly drawn) [Compound No. 101, [(1R)-2-(6,7-dimethyl-2,3-dihydrobenzofuran-3-yl)-1-[(2-phenylacetyl)-amino]ethyl]boronic acid], the IC50 in test [1] was above 5000 nM. In addition, in test [2], the “Selectivity LMP7 vs Beta5” value was “+++++ (Selectivity ≥ 100)” and the IC50 is below 50 nM.

Take `Cc1cccc2c1OCC2C[C@H](NC(=O)Cc1ccccc1C(=O)N(C)C)B(O)O` (stereo partly drawn) [Compound No. 100, [(1R)-1-[[2-[2-(dimethylcarbamoyl)phenyl]acetyl]amino]-2-(7-methyl-2,3-dihydrobenzofuran-3-yl)ethyl]boronic acid]: the IC50 in test [1] was above 5000 nM; in test [2], 50 to 500 nM. Besides, the “Selectivity LMP7 vs Beta5” value in test [2] is “+++++ (Selectivity ≥ 100)”.

For the molecule `CO[C@@H](C(=O)N[C@@H](Cc1coc2c(C)cccc12)B(O)O)c1ccccc1` [Compound No. 76, [(1R)-1-[[(2R)-2-methoxy-2-phenyl-acetyl]amino]-2-(7-methylbenzofuran-3-yl)ethyl]boronic acid], the IC50 in test [1] was 500 to 5000 nM; in test [2], below 50 nM. In addition, the “Selectivity LMP7 vs Beta5” value in test [2] was “+++++ (Selectivity ≥ 100)”.

Consider `CC(=O)Nc1cccc(CC(=O)N[C@@H](Cc2coc3ccccc23)B(O)O)c1` [Compound No. 32, [(1R)-1-[[2-(3-acetamidophenyl)acetyl]amino]-2-(benzofuran-3-yl)ethyl]boronic acid], for which the IC50 in test [1] was 50 to 500 nM. For the same molecule, in test [2], the “Selectivity LMP7 vs Beta5” value is on record as “++++ (70 ≤ Selectivity < 100)”.

The molecule `O=C(Cc1ccccc1-c1ccccc1)N[C@@H](Cc1coc2ccccc12)B(O)O` [Compound No. 98, [(1R)-2-(benzofuran-3-yl)-1-[[2-(2-phenylphenyl)acetyl]amino]-ethyl]boronic acid] showed an IC50 in test [1] of 500 to 5000 nM. In test [2], the “Selectivity LMP7 vs Beta5” value is on record as “++++ (70 ≤ Selectivity < 100)” and the IC50 is below 50 nM.

Turning to `Cc1ccc(C[C@H](NC(=O)[C@H](O)c2ccccc2)B(O)O)cc1` [Compound No. 16, [(1R)-1-[[(2R)-2-hydroxy-2-phenyl-acetyl]amino]-2-(p-tolyl)ethyl]-boronic acid], in test [1], the IC50 is 500 to 5000 nM. Also, in test [2], the “Selectivity LMP7 vs Beta5” value was “++ (10 ≤ Selectivity < 50)” and the IC50 was 50 to 500 nM.

For `O=C(Cc1ccccc1OCCO)N[C@@H](Cc1coc2ccccc12)B(O)O` [Compound No. 50, [(1R)-2-(benzofuran-3-yl)-1-[[2-[2-(2-hydroxyethoxy)phenyl]acetyl]-amino]ethyl]boronic acid], in test [1], the IC50 lay in the range of 500 to 5000 nM. Moreover, in test [2], the “Selectivity LMP7 vs Beta5” value is “+++ (50 ≤ Selectivity < 70)” and the IC50 is below 50 nM.

`O=C(Cc1cccc(OCCCO)c1)N[C@@H](Cc1coc2ccccc12)B(O)O` [Compound No. 31, [(1R)-2-(benzofuran-3-yl)-1-[[2-[3-(3-hydroxypropoxy)phenyl]acetyl]-amino]ethyl]boronic acid]: in test [1], the IC50 lay in the range of 50 to 500 nM. In test [2], the “Selectivity LMP7 vs Beta5” value is reported as “++++ (70 ≤ Selectivity < 100)” and the IC50 was below 50 nM.

`CO[C@@H](C(=O)N[C@@H](CC1COc2c(C)cccc21)B(O)O)c1ccccc1` (stereo partly drawn) [Compound No. 93, [(1R)-1-[[(2R)-2-methoxy-2-phenyl-acetyl]amino]-2-(7-methyl-2,3-dihydrobenzofuran-3-yl)ethyl]boronic acid]: the IC50 is above 5000 nM in test [1] and below 50 nM in test [2]. In test [2], the “Selectivity LMP7 vs Beta5” value is “+++++ (Selectivity ≥ 100)”.

Turning to `Cc1ccc(C)c2c(C[C@H](NC(=O)Cc3ccccc3)B(O)O)coc12` [Compound No. 128, [(1R)-2-(4,7-dimethylbenzofuran-3-yl)-1-[(2-phenylacetyl)-amino]ethyl]boronic acid], the IC50 in test [1] was above 5000 nM. For the same molecule, in test [2], the “Selectivity LMP7 vs Beta5” value is recorded as “+++++ (Selectivity ≥ 100)” and the IC50 is below 50 nM.

As to `O=C(COc1cccnc1)N[C@@H](Cc1coc2ccccc12)B(O)O` [Compound No. 11, [(1R)-2-(benzofuran-3-yl)-1-[[2-(3-pyridyloxy)acetyl]amino]ethyl]-boronic acid], the IC50 in test [1] was 50 to 500 nM; in test [2], below 50 nM. Besides, the “Selectivity LMP7 vs Beta5” value in test [2] is given as “++ (10 ≤ Selectivity < 50)”.

In test [1], `O=C(Cc1ccc(OCCCO)cc1)N[C@@H](Cc1coc2ccccc12)B(O)O` [Compound No. 40, [(1R)-2-(benzofuran-3-yl)-1-[[2-[4-(3-hydroxypropoxy)phenyl]acetyl]-amino]ethyl]boronic acid] displayed an IC50 of 50 to 500 nM. For the same molecule, in test [2], the “Selectivity LMP7 vs Beta5” value is “+++++ (Selectivity ≥ 100)” and the IC50 was below 50 nM.

Take `COc1ccc(C(F)(F)C(=O)N[C@@H](Cc2coc3ccccc23)B(O)O)cc1` [Compound No. 51, [(1R)-2-(benzofuran-3-yl)-1-[[2,2-difluoro-2-(4-methoxyphenyl)acetyl]-amino]ethyl]boronic acid]: the IC50 in test [1] is 500 to 5000 nM. For the same molecule, the “Selectivity LMP7 vs Beta5” value in test [2] is recorded as “+++++ (Selectivity ≥ 100)”.

`O=C(Cc1ccc(-c2ccccc2)cc1)N[C@H](Cc1coc2ccccc12)B(O)O` [Compound No. 69, [(1S)-2-(benzofuran-3-yl)-1-[[2-(4-phenylphenyl)acetyl]amino]ethyl]-boronic acid] gave an IC50 in test [1] of 500 to 5000 nM. For the same molecule, in test [2], the “Selectivity LMP7 vs Beta5” value is “++ (10 ≤ Selectivity < 50)” and the IC50 was 50 to 500 nM.

For `O=C(COc1ccccn1)N[C@@H](Cc1ccccc1)B(O)O` [Compound No. 2, [(1R)-2-phenyl-1-[[2-(2-pyridyloxy)acetyl]amino]ethyl]boronic acid], the IC50 in test [1] is 500 to 5000 nM. For the same molecule, in test [2], the “Selectivity LMP7 vs Beta5” value is on record as “++ (10 ≤ Selectivity < 50)” and the IC50 is 50 to 500 nM.

The values above are taken from patent US10294246B2, “Substituted boronic acids and boronate esters as immunoproteasome inhibitors” (MERCK PATENT GMBH, priority 2014, dated 2019).
